Data taken from patent publication US11028083B2, “Ethanediamine-heterocycle derivatives as inhibitors of protein arginine methyltransferases” (Board of Regents, The University of Texas System, priority 2018, dated 2021).

Key:
[1] = molecular target: Full-length human GST-PRMT4 (Homo sapiens (Human), UniProt Q86X55); assay: PRMT4 RapidFire Mass Spectrometry Selectivity Assay (SAH production); type: biochemical; conditions: Rapid fire enzyme assay; 0.5 μM SAM, 15 nM Histone H3.3; read-out: PRMT-4 IC50
Excerpt: Full-length human GST-PRMT4 (SignalChem, catalog#P365-380DG) was expressed by baculovirus in Sf9 insect cells.

PRMT1 = PRMT1 (Homo sapiens (Human), UniProt Q99873); assay: PRMT1 Enzymatic Assay (LANCE TR-FRET, methylation of histone H4 at Arg3); type: biochemical; conditions: PRMT-1 Enzymatic Assay; 1 μM SAM, 25 nM biotinylated histone H4 (1-21)
Procedure: In order to measure PRMT1 enzymatic activity the LANCE TR-FRET assay from PerkinElmer was used to follow the methylation of histone H4 at Arg3 using S-adenosyl-L-methionine (SAM) as the methyl group donor.
Final concentrations of PRMT1, SAM, and histone H4 (1-21) refer to a 10 μL volume.
Detection of methylated histone H4 (H4R3me) was achieved by combining LANCE Ultra Europium-anti-H4R3me antibody (PerkinElmer, Catalog #TRF04-14), LANCE Ultra ULight-anti-streptavidin antibody (PerkinElmer, Catalog #TRF0102), and sinefungin (Sigma, Catalog #S8559) (final concentrations 2 nM, 50 nM, and 100 μM respectively) in 1×LANCE detection buffer (PerkinElmer, Catalog #CR97-100) and adding 10 μL/well of the detection solution to the assay plate. Detection reagents were allowed to react for 1 hour at room temperature. Final concentrations in the detection solution refer to a 20 μL volume.

PRMT1 in RKO cells = PRMT1 in RKO cells (Homo sapiens (Human), UniProt Q99873); assay: PRMT1 RKO Cellular Target Engagement Assay (In-Cell Western, asymmetric di-methyl arginine); type: cell-based; conditions: PRMT-1 Target Engagement, 48 hr compound incubation
Procedure: In preparation for the In-Cell Western assay, cells were harvested and resuspended in EMEM media supplemented with 10% fetal bovine serum. […] The culture plate was incubated for 24 hr at 37° C. with 5% CO2 and ambient O2. […] The primary antibody was then removed, and the plate was washed three times with 1×PBST. […] The plate was then incubated in the dark, at room temperature for 1 hour followed by three washes with 1×PBST and one wash with H2O. The IRDye secondary antibody signal (800 channel) and the CellTag signal (700 channel) were measured using a Licor Odyssey Imager, and the 800 channel signal was then normalized to the 700 channel signal. IC50 values were calculated using a four-parameter logistic curve fit using Genedata Screener software.

[2] = molecular target: Full-length human PRMT1 (1-361) (Homo sapiens, UniProt Q99873); assay: PRMT1 RapidFire Mass Spectrometry Selectivity Assay (SAH production); type: biochemical; conditions: Rapid fire enzyme assay; 1 μM SAM, 50 nM histone H4 (1-21); read-out: PRMT-1 IC50
[3] = molecular target: Full-length human PRMT6 (1-375) (Homo sapiens (Human), UniProt Q96LA8); assay: PRMT6 RapidFire Mass Spectrometry Selectivity Assay (SAH production); conditions: read-out: PRMT-6 IC50; Rapid fire enzyme assay; 3 μM SAM, 250 nM Histone H4 (36-50) K44 MeI
Chain of Full-length human PRMT6 (1-375) (Q96LA8 whole entry): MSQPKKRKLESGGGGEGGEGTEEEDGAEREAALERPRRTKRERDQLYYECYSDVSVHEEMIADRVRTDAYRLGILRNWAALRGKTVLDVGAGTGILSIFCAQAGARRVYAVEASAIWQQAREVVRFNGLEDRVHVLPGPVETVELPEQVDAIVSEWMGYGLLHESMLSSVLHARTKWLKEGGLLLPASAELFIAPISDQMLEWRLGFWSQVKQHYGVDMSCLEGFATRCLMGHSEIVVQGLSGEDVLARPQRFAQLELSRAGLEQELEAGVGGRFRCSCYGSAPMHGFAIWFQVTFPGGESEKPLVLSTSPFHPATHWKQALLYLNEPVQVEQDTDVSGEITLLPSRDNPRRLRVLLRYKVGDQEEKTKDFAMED
Procedure: The PRMT6 assay was performed by dispensing 6 uL/well (final concentration of 10 nM) of PRMT6 protein diluted in assay buffer to the plate. Stock solutions of the test compounds were prepared in 100% DMSO (Sigma, Catalog #D2650) and serially diluted 1:3 using 100% DMSO. Compounds were additionally diluted 1:50 in assay buffer, and 6 μL/well were transferred to the assay plate. Plates were allowed to incubate for 15 min at room temperature.
RapidFire buffer A contained H2O and buffer B was 80% acetonitrile/H2O. […] SAH peaks were integrated using RapidFire peak software and IC50 values were calculated using a four-parameter logistic curve fit using Genedata Screener software.

Chain of Full-length human GST-PRMT4 (Q86X55 whole entry): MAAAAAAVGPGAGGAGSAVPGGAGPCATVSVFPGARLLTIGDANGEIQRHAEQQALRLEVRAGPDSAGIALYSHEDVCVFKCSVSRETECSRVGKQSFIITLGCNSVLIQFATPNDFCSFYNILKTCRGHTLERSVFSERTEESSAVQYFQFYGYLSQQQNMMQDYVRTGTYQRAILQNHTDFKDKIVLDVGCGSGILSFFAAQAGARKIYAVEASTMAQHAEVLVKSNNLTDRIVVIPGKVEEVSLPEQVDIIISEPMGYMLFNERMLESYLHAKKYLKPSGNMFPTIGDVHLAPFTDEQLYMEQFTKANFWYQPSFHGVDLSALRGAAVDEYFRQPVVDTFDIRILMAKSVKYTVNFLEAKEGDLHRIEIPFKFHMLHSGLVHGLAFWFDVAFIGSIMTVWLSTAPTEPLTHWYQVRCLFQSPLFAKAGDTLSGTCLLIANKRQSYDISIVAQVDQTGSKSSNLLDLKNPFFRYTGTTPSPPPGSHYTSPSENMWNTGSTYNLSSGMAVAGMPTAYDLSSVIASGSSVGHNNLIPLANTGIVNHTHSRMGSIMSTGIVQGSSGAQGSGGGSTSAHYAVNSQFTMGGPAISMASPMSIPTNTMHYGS
Chain of PRMT1 (Q99873 whole entry): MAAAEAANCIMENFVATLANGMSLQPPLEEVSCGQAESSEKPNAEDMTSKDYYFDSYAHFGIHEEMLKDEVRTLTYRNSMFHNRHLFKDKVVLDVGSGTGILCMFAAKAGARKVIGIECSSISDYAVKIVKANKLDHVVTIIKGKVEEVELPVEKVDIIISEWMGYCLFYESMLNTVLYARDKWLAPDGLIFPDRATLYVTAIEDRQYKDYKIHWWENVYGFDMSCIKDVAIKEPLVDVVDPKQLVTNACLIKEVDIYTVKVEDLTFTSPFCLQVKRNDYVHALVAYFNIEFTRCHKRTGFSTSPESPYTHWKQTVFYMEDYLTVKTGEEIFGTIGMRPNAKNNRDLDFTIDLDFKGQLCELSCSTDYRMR
Chain of PRMT1 in RKO cells (Q99873 whole entry): as above

Compound	IC50 [1] [µM]	IC50 (PRMT1) [µM]	further results
CNCCN(C)Cc1nn2c(c1C1CCCCC1)CCCC2 [Example 21, N^1-((3-cyclohexyl-4,5,6,7-tetrahydropyrazolo[1,5-a]pyridin-2-yl)methyl)-N^1,N^2-dimethylethane-1,2-diamine]	1.12		
CCOCC1(COCC)CCC(c2c(CN(C)CCNC)nn3c2CCC3)CC1 [Example 2, N^1-((3-(4,4-bis(ethoxymethyl)cyclohexyl)-5,6-dihydro-4H-pyrrolo[1,2-b]pyrazol-2-yl)methyl)-N^1, N^2-dimethylethane-1,2-diamine]	0.079		
CCOCC1(COCC)CCC(c2c(CNCCN)nn3c2CC(F)(F)C3)CC1 [Example 92, N^1-((3-(4,4-bis(ethoxymethyl)cyclohexyl)-5,5-difluoro-5,6-dihydro-4H-pyrrolo[1,2-b]pyrazol-2-yl)methyl)ethane-1,2-diamine]		0.073	
CNCCN(C)Cc1nn2c(c1C1CCC(C)(C)CC1)CCC2 [Example 51, N^1-((3-(4,4-dimethylcyclohexyl)-5,6-dihydro-4H-pyrrolo[1,2-b]pyrazol-2-yl)methyl)-N^1,N^2-dimethylethane-1,2-diamine]	0.337		
CNCCN(C)Cc1nn2c(c1C1CCCCC1)CCC2 [Example 11, N^1-((3-cyclohexyl-5,6-dihydro-4H-pyrrolo[1,2-b]pyrazol-2-yl)methyl)-N^1,N^2-dimethylethane-1,2-diamine]	0.654	0.044	IC50 (PRMT1 in RKO cells): 14 µM; IC50 [2]: 0.093 µM; IC50 [3]: 0.099 µM
CNCCN(C)Cc1nn2c(c1C1CCC3(CCCC3)CC1)CCC2 [Example 49, N^1,N^2-dimethyl-N^1-((3-(spiro[4.5]decan-8-yl)-5,6-dihydro-4H-pyrrolo[1,2-b]pyrazol-2-yl)methyl)ethane-1,2-diamine]	0.114		
